Data: ChEMBL document CHEMBL1201862, “PubChem BioAssay data set” (2004)
The source made the active and inactive calls.

Key:
[1] = biological target: T1, Nuclear receptor subfamily 0 group B member 1 (Homo sapiens, UniProt P51843); format: functional, cell-based;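 further: HEK293T cells transfected with SF-1 and DAX-1 plus StAR promoter luciferase reporter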
T1 sequence (P51843 whole entry): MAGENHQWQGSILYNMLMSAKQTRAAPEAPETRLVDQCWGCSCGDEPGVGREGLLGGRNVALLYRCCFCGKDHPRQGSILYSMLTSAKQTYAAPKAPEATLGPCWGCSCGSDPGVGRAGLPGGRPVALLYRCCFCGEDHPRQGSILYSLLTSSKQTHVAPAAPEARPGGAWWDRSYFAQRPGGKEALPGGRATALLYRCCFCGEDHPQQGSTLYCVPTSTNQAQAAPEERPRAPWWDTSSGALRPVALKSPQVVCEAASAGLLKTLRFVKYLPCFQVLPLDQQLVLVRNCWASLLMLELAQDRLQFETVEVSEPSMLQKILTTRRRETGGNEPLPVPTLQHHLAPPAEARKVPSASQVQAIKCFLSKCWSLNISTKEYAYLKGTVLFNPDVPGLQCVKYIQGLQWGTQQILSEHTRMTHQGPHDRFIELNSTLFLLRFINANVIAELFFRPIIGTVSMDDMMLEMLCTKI

[2] = Luminescence Cell-Based Dose Response HTS to Identify Inhibitors of 5'UTR Stem-Loop Driven Prion Protein mRNA Translation in H4 Neuroglioblastoma Cells. [Related pubchem assays: 1827 (Project Summary), 1813 (Primary HTS)]; format: functional
cells [3] = format: functional, cell-based
[4] = MC4R antagonists, dose response, counter-screen for LGR2 antagonist project, cell-based, plate reader, cherry pick (AID 743444); format: functional;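 further: transfected HEK 293 cells stimulated with alpha-MSH peptide; potency of inhibitors of the alpha-MSH evoked signal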
[5] = LGR2 antagonists, dose response, cell-based, HEK293, CRE-luciferase reporter, cherry pick, set 2 (AID 743343); format: functional;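 further: transfected cells were stimulated with diluted bursicon conditioned medium after compound addition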
Cytochrome P450 2D6 = Cytochrome P450 2D6 (Homo sapiens, UniProt P10635);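 further: CYP2D6 member of a cytochrome P450 panel assay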
Galanin receptor type 3 = Galanin receptor type 3 (Homo sapiens, UniProt O60755); experiment: Fluorescence-based cell-based primary high throughput dose response assay to identify antagonists of the Galanin Receptor 3 (GalR3).; format: functional
[6] = cytotoxicity in HEK-293T cells, dose response, cytotoxicity control for TCR NF-kB inhibitor project, luminescence, T-cell screen hits (AID 489026); format: functional, cell-based;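 further: cells exposed to compound about 14 hours before the viability readout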
Cytochrome P450 3A4 = Cytochrome P450 3A4 (Homo sapiens, UniProt P08684);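 further: CYP3A4 tested as one member of a cytochrome P450 panel screen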
cells [7] = format: functional, cell-based; conditions: HEK-CNG
INS1 = experiment: beta cell apoptosis inhibitors, cytokine rescue, dose response, luminescence, retest (AID 449756); format: functional, cell-based; conditions: Rattus norvegicus;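 further: cell death triggered by IL-1 beta plus TNF-alpha plus IFN-gamma mixture; protective hits raise ATP signal compared with cytokine alone wells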
[8] = Vero E6 cell cytotoxicity, dose response, cytotoxicity control for non-replicating M. tuberculosis project, secondary assay (AID 492998); format: functional, VeroE6; conditions: Vero C1008
[9] = HepG2 cell cytotoxicity, dose response, cytotoxicity control for non-replicating M. tuberculosis project (AID 489018); format: functional; conditions: Mycobacterium tuberculosis
[10] = THP-1 cell cytotoxicity, dose response, cytotoxicity control for non-replicating M. tuberculosis project (AID 489025); format: functional
[11] = HepG2 cell cytotoxicity, dose response, cytotoxicity control, ATP luminescence, cherry-pick, activator set 2 (AID 1053143); format: functional, cell-based
cells [12] = format: functional
[13] = cytotoxicity toward NIH3T3 fibroblasts, dose response, counter-screen, cell-based, ATP luminescence, mouse fibroblasts (AID 2010); format: functional;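 further: cells exposed to compound for about 90 hours before reading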
[14] = inhibitors of intracellular T. cruzi replication, confirmation, NIH3T3 host cells, beta-gal luminescence (AID 2044); format: functional, cell-based;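 further: intracellular parasites grown in NIH/3T3 mouse fibroblasts as host cells; luminescent beta-galactosidase reporter signal from transgenic T. cruzi replicating inside host cells; inhibitors lower the luminescence signal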
[15] = biological target: SWI/SNF-related matrix-associated actin-dependent regulator of chromatin subfamily A member 2 (Homo sapiens, UniProt P51531); experiment: Luminescence-based cell-based high throughput dose response assay to identify activators of the function of SWI/SNF related, matrix associated, actin dependent regulator of chromatin, subfamily a, member 2 (SMARCA2, BRM).; format: functional
[16] = Counterscreen for activators of the function of SWI/SNF related, matrix associated, actin dependent regulator of chromatin, subfamily a, member 2 (SMARCA2, BRM): Luminescence-based cell-based high throughput dose response assay to identify non-selective compounds using the VP16 reporter assay.; format: functional
Major prion protein = Major prion protein (Homo sapiens, UniProt P04156); format: functional, cell-based
cells [17] = experiment: cells
[18] = HEK293 cell cytotoxicity, dose response, cytotoxicity control, plate reader, cherry-picked samples (AID 743446); format: functional, cell-based
[19] = HepG2 cell cytotoxicity, dose response, cytotoxicity control, plate reader, cherry-pick, antagonist series (AID 743416); format: functional, cell-based
[20] = HepG2 cell cytotoxicity, dose response, cytotoxicity control for Shn3 inhibitor project, CellTiter-Glo, cherry-picked (AID 624134); format: functional, cell-based
[21] = control 3'UTR Renilla luciferase suppression, dose response, counter-screen for Shn3 inhibitor project, cell-based, Clone20-Shn3RL, cherry-picked (AID 624133); format: functional
[22] = Shn3 3'UTR reporter inhibitors, dose response, cell-based, Clone20 osteoblasts, firefly luciferase, cherry-picked (AID 624132); format: functional;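 further: firefly luciferase luminescence from reporter carrying the Shn3 3'UTR in osteoblasts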
[23] = biological target: T2, Oxysterols receptor LXR-beta (Homo sapiens, UniProt P55055); format: functional, cell-based;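 further: agonist activity at LXR measured by a cell-based luminescence readout across a dose range, run as a counterscreen for daf-12 agonists; HEK293 cells with Gal4-LXR fusion and GAL4-driven luciferase reporter; potency for activation of Gal4-LXR reporter so compounds are agonists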
T2 sequence (P55055 whole entry): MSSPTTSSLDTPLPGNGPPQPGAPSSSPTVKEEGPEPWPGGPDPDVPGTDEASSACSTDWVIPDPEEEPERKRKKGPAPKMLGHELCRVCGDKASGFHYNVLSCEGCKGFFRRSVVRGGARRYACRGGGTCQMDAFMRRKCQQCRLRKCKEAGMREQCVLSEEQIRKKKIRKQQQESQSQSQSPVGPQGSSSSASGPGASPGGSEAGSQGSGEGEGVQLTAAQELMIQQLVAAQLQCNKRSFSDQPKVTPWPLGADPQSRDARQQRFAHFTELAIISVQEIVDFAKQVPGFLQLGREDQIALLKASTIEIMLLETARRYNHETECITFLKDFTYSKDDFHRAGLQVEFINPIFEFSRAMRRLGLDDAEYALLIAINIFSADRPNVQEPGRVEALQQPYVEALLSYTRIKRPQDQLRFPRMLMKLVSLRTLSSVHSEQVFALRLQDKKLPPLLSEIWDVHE

Protein skinhead-1 = biological target: T3, Protein skinhead-1 (Caenorhabditis elegans, UniProt P34707); format: functional
T3 sequence (P34707 whole entry): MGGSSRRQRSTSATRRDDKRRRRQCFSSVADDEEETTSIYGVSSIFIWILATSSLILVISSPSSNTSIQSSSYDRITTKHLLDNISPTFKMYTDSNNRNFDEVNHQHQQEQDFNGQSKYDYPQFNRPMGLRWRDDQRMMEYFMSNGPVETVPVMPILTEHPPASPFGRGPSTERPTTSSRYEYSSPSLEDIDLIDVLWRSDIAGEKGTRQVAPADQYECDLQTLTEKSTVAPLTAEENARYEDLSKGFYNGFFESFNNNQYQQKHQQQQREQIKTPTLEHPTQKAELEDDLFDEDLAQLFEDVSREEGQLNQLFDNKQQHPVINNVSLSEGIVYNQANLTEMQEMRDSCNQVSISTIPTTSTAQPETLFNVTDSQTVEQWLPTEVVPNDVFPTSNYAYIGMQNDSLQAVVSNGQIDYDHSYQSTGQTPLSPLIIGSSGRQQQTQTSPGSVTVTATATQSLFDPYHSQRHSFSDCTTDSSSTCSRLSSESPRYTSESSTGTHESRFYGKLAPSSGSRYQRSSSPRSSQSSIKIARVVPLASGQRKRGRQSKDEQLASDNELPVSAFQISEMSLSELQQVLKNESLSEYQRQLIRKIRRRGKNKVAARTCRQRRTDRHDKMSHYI

Steroidogenic factor 1 = Steroidogenic factor 1 (Homo sapiens, UniProt Q13285); experiment: Counterscreen for inverse agonists of the liver receptor homolog-1 (LRH-1; NR5A2): Luminescence-based cell-based high throughput dose response assay to identify inverse agonists of the Steroidogenic Factor 1 Nuclear Receptor (SF1; NR5A1).; format: functional
[24] = StAR promoter reporter inhibition counter-screen, dose response, counter-screen for LRH-1 inverse agonist project, cell-based, luminescence, luciferase reporter (AID 651969); format: functional
[25] = biological target: Nuclear receptor subfamily 5 group A member 2 (Homo sapiens, UniProt O00482); format: functional, cell-based;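 further: HEK293T cells transfected with LRH-1 and a StAR promoter luciferase reporter; potency for inhibitors that lower LRH-1 driven reporter light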
fMet-Leu-Phe receptor = fMet-Leu-Phe receptor (Homo sapiens, UniProt P21462); experiment: FPR ligands, dose response (AID 519); format: functional
[26] = HEK293T cytotoxicity, dose response, cytotoxicity control for miR-122 modulator project, cell-based, inhibitor set, cherry-pick, set 2 (AID 720697); format: functional
[27] = miR-122 activators in hepatoma reporter cells, dose response, cell-based, Huh7 psiCHECK-miR122, Renilla luciferase, cherry-picked (AID 651956); format: functional;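 further: huh7 hepatoma cells stably carrying a psiCHECK-2 miR-122 sensor plasmid; renilla luciferase signal reporting endogenous miR-122 activity after 48 h compound exposure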
[28] = non-specific cell cytotoxicity, dose response, cytotoxicity control for PAX8 inhibitor project, plate reader, dry powder samples (AID 743021); format: functional, cell-based
Paired box protein Pax-8 = Paired box protein Pax-8 (Homo sapiens, UniProt Q06710); experiment: inhibitors of PAX8-driven TPO luciferase reporter, dose response, RMG-I cells, cherry-pick (AID 687027); format: functional, cell-based;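 further: luciferase reporter driven by Pax8 target thyroperoxidase promoter measured by SteadyGlo luminescence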
[29] = luciferase reporter signal reduction – luminescence, H4-C neuroglioblastoma cells, dose response (AID 2458); format: functional, cell-based;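 further: H4 neuroglioblastoma cells stably carrying a luciferase reporter gene fusion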
[30] = inhibitors of firefly luciferase expression or activity, dose response, H4 neuroglioma cells, luminescence (AID 1990); format: functional, cell-based
cells [31] = format: functional, cell-based; remark: listed apart in the source
[32] = inhibitors of SNCA 5'UTR-driven reporter translation, confirmation, H4 neuroglioma cells, luminescence (AID 1988); format: functional, cell-based
[33] = inhibitors of SNCA 5'UTR-driven translation, confirmation, luminescence, H4 neuroglioblastoma cells, dose confirmation (AID 2454); format: functional, cell-based;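 further: H4 neuroglioblastoma cells carrying an alpha-synuclein 5'UTR luciferase reporter; potency for inhibition of the luciferase signal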
[34] = HeLa 4N DNA content increase, dose response, cell-based, IC50 (AID 1117351); format: functional
[35] = HeLa 2N DNA content increase, dose response, cell-based, IC50 (AID 1117349); format: functional

## O=C(c1cc(-c2ccc(Cl)cc2Cl)on1)N1CCOCC1
[1]
  IC50: > 67.5 µM (inactive)
[2]
  EC50: > 120 µM (not active)
Cells [3]
  IC50: > 67.5 µM (inactive)
[4]
  AC50: 7.28 µM (active)
[5]
  AC50: 7.17 µM (active)

## CCc1c(C)nc2ncnn2c1NCCc1ccc(OC)cc1
Cytochrome P450 2D6
  AC50: 12.6 µM (inconclusive)
Galanin receptor type 3
  IC50: 3.2 µM (active)
[6]
  IC50: > 80 µM (inactive)
Cytochrome P450 3A4
  AC50: 25.1 µM (inconclusive)
Cells [7]
  EC50: > 29.9 µM (inactive)
INS1
  AC50: 5.39 µM (active)

## Cc1cc(NCc2ccccn2)n2ncc(-c3ccccc3)c2n1
[8]
  CC50: 11.8 µM (active)
[9]
  CC50: 4.11 µM (active)
[10]
  CC50: 6.66 µM (active)
[11]
  AC50: 26 µM (active)
Cells [12]
  IC50: 1.4 µM (active)

## Cc1cc(NCCN2CCOCC2)c2ccc3ccccc3c2n1
[13]
  EC50: > 60 µM (not active)
[14]
  EC50: 0.949 µM (active)
[15]
  EC50: 25.3 µM (inactive)
[16]
  EC50: > 91.2 µM (inactive)

## N=C(N)NS(=O)(=O)c1ccc(NC(=S)NC(=O)c2sc3ccccc3c2Cl)cc1
Major prion protein
  IC50: 5.54 µM (active)
Cells [17]
  IC50: > 138 µM (inactive)

## c1ccc(-n2nnnc2Sc2ncnc3sc4c(c23)CCCC4)cc1
[4]
  AC50: 5.73 µM (active)
[18]
  AC50: 42.3 µM (active)
[19]
  AC50: > 52 µM (inactive)
[5]
  AC50: 5.02 µM (active)

## Cn1nc(C(C)(C)C)cc1C(=O)NCc1ccc2c(c1)OCO2
[20]
  AC50: 2.31 µM (active)
[21]
  AC50: 1.02 µM (active)
Galanin receptor type 3
  IC50: 1.83 µM (active)
[22]
  AC50: 1.17 µM (active)
Cells [7]
  EC50: > 29.9 µM (inactive)
INS1
  AC50: 3.31 µM (active)

## CCc1cc2c(=O)c(-c3ccc4c(c3)OCO4)coc2c(CN(C)C)c1O
Major prion protein
  IC50: 2.07 µM (active)
Cells [17]
  IC50: > 138 µM (inactive)

## S=C(c1ccc(-c2ccc(Cl)cc2)o1)N1CCCCC1
[23]
  EC50: > 67.5 µM (inactive)

## Clc1ccc(Nc2ccc3ccccc3n2)cc1
Protein skinhead-1
  IC50: > 100 µM (inactive)
[23]
  EC50: > 67.5 µM (inactive)

## CC1=CC(O)C(O)C2(C)C1CC1OC(=O)CC3C(C)C(O)C(=O)C2C13CO (stereo not drawn)
Steroidogenic factor 1
  IC50: 4.96 µM (active)
[24]
  IC50: 17.7 µM (inactive)
[25]
  IC50: 6.91 µM (active)

## CCOc1ccc(C2C(C(=O)c3cccs3)=C(O)C(=O)N2CCCn2ccnc2)cc1 (stereo not drawn)
fMet-Leu-Phe receptor
  Ki: 57.1 µM (inactive)

## COc1ccccc1CNc1nc(NCC2CC2)nc2ccsc12
[26]
  AC50: 6.06 µM (active)
[20]
  AC50: 39.9 µM (active)
[21]
  AC50: 6.69 µM (active)
[22]
  AC50: 4.16 µM (active)
[27]
  AC50: 29.6 µM (active)

## CC(C)C#Cc1ccc2c(c1)O[C@H](CN(C)C(=O)c1ccncc1)[C@@H](C)CN([C@@H](C)CO)S2(=O)=O
[26]
  AC50: 0.461 µM (active)
[27]
  AC50: 11.6 µM (active)

## Cc1ccc(S(=O)(=O)N(C)C[C@H]2Oc3ccc(NS(=O)(=O)c4ccc(F)cc4)cc3CC(=O)N([C@H](C)CO)C[C@H]2C)cc1
[28]
  AC50: 52.8 µM (active)
Paired box protein Pax-8
  AC50: 21.5 µM (active)

## O=C(Cc1ccc(-c2ccccc2)cc1)Nc1ccccn1 [DIFENPIRAMIDE]
[15]
  EC50: > 91.2 µM (inactive)
[16]
  EC50: > 91.2 µM (inactive)

## COc1cc([C@@H]2c3cc4c(cc3[C@H](O)[C@H]3COC(=O)[C@H]23)OCO4)cc(OC)c1OC [PODOFILOX]
[1]
  IC50: 2.15 µM (active)
[29]
  EC50: 0.015 µM (active)
Cells [3]
  IC50: > 67.5 µM (inactive)
[30]
  EC50: < 0.1 µM (active)
Paired box protein Pax-8
  AC50: < 0.26 µM (active)
Cells [31]
  EC50: 0.014 µM (active)
[6]
  IC50: > 80 µM (inactive)
[32]
  EC50: < 0.1 µM (active)
[33]
  EC50: 0.008 µM (active)
[34]
  IC50: 0.0077 µM (active)
[35]
  IC50: 0.0089 µM (active)
